Laboratory results as given in PubChem BioAssay (NCI).
Where “and” joins values, the source holds several entries; their conditions need not be identical. Identical values can stand only once.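 Dose response: 5 concentrations. Exposure: 48 h. Format: 96-well plates. Endpoint: linear interpolation; highest concentration if not reached. GI50 is the concentration that inhibits growth by half. At the TGI there is no net growth.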

System: HS 578T breast
Experiment: NCI-60 cell line screen, 48 h

SMILES	GI50	TGI [µM]
COc1cc(NCc2ccc3nc(N)nc(N)c3c2C)cc(OC)c1OC (tested in a mixture with another compound)	29 µM and 8.3 µM	
Cc1nn(-c2ccc(Cl)cc2)c2nc3c(nc12)C(=O)c1ccccc1-3	15.7 µM	> 100
O=C(Nc1ccncc1)C(=O)c1cn(S(=O)(=O)c2ccc(F)cc2)c2ccccc12	3.65 µM	82.1
COc1ccc(C(=O)/C=C/c2cc(-c3cc(OC)c(OC)c(OC)c3)n[nH]2)cc1OC	2.57 µM	8.2
O=C(c1ccccc1Br)C(F)(F)F		> 100
O=C1OCC2=C1C(c1cccc(Br)c1)c1cc3c(cc1N2CCO)CCC3 (stereo not given)	0.151 µM	11.4
Oc1cccnc1[Se]		> 100
O=C1C=CC(=O)c2cc3cc(CBr)ccc3cc21	28.7 µM	> 93.2
COc1cc(F)ccc1-c1ncnc(Nc2cccc(CS(C)(=N)=O)c2)n1 (stereo not given)	1.21 µM	23.9
[Cl][Hg][c]1cc[c]([Hg][Cl])o1	3.71 µM	> 100
O=C1/C(=C/c2cccc(Cl)c2Cl)N=C(c2ccccc2)N1C1CC1	16.6 µM	39.5
CN(C)C(n1cc2c(c1)-c1ccc(Cl)cc1C(c1ccccc1F)=NC2)n1cc2c(c1)-c1ccc(Cl)cc1C(c1ccccc1F)=NC2		> 100
COc1cc2c(cc1OCCCNC(=O)c1cccc3c(=O)c4ccccc4[nH]c13)N=C[C@@H]1CCCN1C2=O	< 0.01 µM	0.121
COc1cccc2c1C(=O)c1c(O)c3c(c(O)c1C2=O)C[C@](O)(C(=O)CO)C[C@H]3O[C@@H]1C[C@@H](NC(=O)CCCCCN(C)C2(c3ccc(F)cc3)CC3CCC2C3)[C@H](O)[C@@H](C)O1 (stereo not given in full)	8.26 µM	21.6
COc1ccc(Nc2nnc(-c3cc(O)ccc3O)s2)cc1	19.7 µM	> 50
Cn1cc(-c2csc(-c3c[nH]c4ccc(F)cc34)n2)c2cnccc21	2.26 µM	5.08
O=C1Nc2ccccc2/C1=N\[O-].O=C1Nc2ccccc2/C1=N\[O-].[Cu+2]	> 100 µM	> 100
CCOC(=O)Nc1ccc(C)c(NC(=O)OCC)c1		> 100

System: OVCAR-3 ovarian
Experiment: NCI-60 cell line screen, 48 h

SMILES	TGI [µM]	GI50 [µM]
COc1cc(NCc2ccc3nc(N)nc(N)c3c2C)cc(OC)c1OC (tested in a mixture with another compound)	77.8	
Cc1nn(-c2ccc(Cl)cc2)c2nc3c(nc12)C(=O)c1ccccc1-3	> 100	> 100
O=C(Nc1ccncc1)C(=O)c1cn(S(=O)(=O)c2ccc(F)cc2)c2ccccc12	7.6	1.76
COc1ccc(C(=O)/C=C/c2cc(-c3cc(OC)c(OC)c(OC)c3)n[nH]2)cc1OC	3.17	1.68
O=C(c1ccccc1Br)C(F)(F)F	> 100	
O=C1OCC2=C1C(c1cccc(Br)c1)c1cc3c(cc1N2CCO)CCC3 (stereo not given)	0.153	0.0339
COc1ccc(NC(=O)/C(Cc2cc(=O)oc3cc(O)ccc23)=N\NC(C)(C)C)c(OC)c1	> 100	
O=C1/C(=C/c2ccc3c(c2)OCO3)SC2C=Nc3ccccc3N12 (stereo not given)	> 100	
CCOc1ccc(NC(=O)C(=O)CC(=O)c2c(C)n([O-])c3ccccc3[n+]2=O)cc1	> 100	
Cc1cc(Cl)ccc1NC(=O)C(=O)Cc1nc2ccccc2o1	> 100	
OCC1OC(c2nc(C3=NCCCN3)cs2)C(O)C1O (stereo not given)	> 10	
Oc1cccnc1[Se]	> 100	
O=C1C=CC(=O)c2cc3cc(CBr)ccc3cc21	> 21.8	7.43
CCC(C)COC(=O)c1ccc(N=Cc2ccc(C=Nc3ccc(C(=O)OCC(C)CC)cc3)cc2)cc1 (stereo not given)	> 100	
COc1cc(F)ccc1-c1ncnc(Nc2cccc(CS(C)(=N)=O)c2)n1 (stereo not given)	> 100	0.45
Cc1cc(N(CCC#N)CCC#N)ccc1N=Nc1ccc(C(=O)O)cc1	> 100	
CN(C)CC1CCCC/C1=N/OC(=O)c1ccc(Cl)cc1 (stereo not given)	> 100	
N#CC(C(=O)C(=O)C(C#N)c1ccc(Br)cc1)c1ccc(Br)cc1 (stereo not given)	21.4	
COc1cccc(C2=NC(C(C)C)CO2)c1 (stereo not given)	> 100	
O=C1/C(=C/c2cccc(Cl)c2Cl)N=C(c2ccccc2)N1C1CC1	> 50	22.1
CCOC(=O)C(=[N+]=[N-])[Si](C)(C)C	> 100	

SMILES	TGI [µM]	GI50 [µM]
CN(C)C(n1cc2c(c1)-c1ccc(Cl)cc1C(c1ccccc1F)=NC2)n1cc2c(c1)-c1ccc(Cl)cc1C(c1ccccc1F)=NC2	> 100	
CCCc1nc(NC#N)nc(C(=O)Nc2ccccc2)c1CC	> 100	
O=C(CCc1n[nH]c(=S)o1)Nc1ccccc1C(F)(F)F	> 100	
COc1cc2c(cc1OCCCNC(=O)c1cccc3c(=O)c4ccccc4[nH]c13)N=C[C@@H]1CCCN1C2=O	6.64	
Cc1ccc(NC(=O)CCc2cc(C(C)(C)C)nc(=S)[nH]2)cc1C	> 100	
Cc1[nH]c2ccccc2c1C(=O)/C=C/c1ccccc1O	> 100	
O=C(Nc1nc(=S)c2c(ncn2CCOC(=O)c2ccccc2)[nH]1)c1ccccc1	> 100	
COc1cccc2c1C(=O)c1c(O)c3c(c(O)c1C2=O)C[C@](O)(C(=O)CO)C[C@H]3O[C@@H]1C[C@@H](NC(=O)CCCCCN(C)C2(c3ccc(F)cc3)CC3CCC2C3)[C@H](O)[C@@H](C)O1 (stereo not given in full)	4.27	1.41
COc1ccc(CC2NCCc3c2[nH]c2ccccc32)cc1 (stereo not given)	> 100	
CCOc1ccc(NC(=O)CC#N)cc1	> 100	
O=C(/C=C/c1cccc2ccccc12)c1ccccc1Cl	25.6	
COc1ccc(Nc2nnc(-c3cc(O)ccc3O)s2)cc1	> 50	> 50
Cc1ccc(/C=C/C(=O)c2sc(-c3nc(C)c(C(=O)/C=C/c4ccc(C)cc4)s3)nc2C)cc1	> 100	
O=C1/C(=C/c2ccc(Cl)cc2)CCC1CCN1CCOCC1 (stereo not given)	> 100	
Cn1cc(-c2csc(-c3c[nH]c4ccc(F)cc34)n2)c2cnccc21	3.32	1.83
O=C1Nc2ccccc2/C1=N\[O-].O=C1Nc2ccccc2/C1=N\[O-].[Cu+2]	> 100	> 100
CCC[CH2][Sn]([Cl])([CH2]CCC)[CH2]CCC	0.312	0.142
CCOC(=O)Nc1ccc(C)c(NC(=O)OCC)c1	> 100	
O=c1ccn([C@H]2CSC[C@@H](CO)C2)c(=O)[nH]1	> 100	
C1CN2CCN3CCN4CCN1[P+]243	> 100	

System: T-47D breast
Experiment: NCI-60 cell line screen, 48 h

SMILES	TGI [µM]	GI50 [µM]
COc1cc(NCc2ccc3nc(N)nc(N)c3c2C)cc(OC)c1OC (tested in a mixture with another compound)	65.7	
Cc1nn(-c2ccc(Cl)cc2)c2nc3c(nc12)C(=O)c1ccccc1-3	65.6	17.4
O=C(Nc1ccncc1)C(=O)c1cn(S(=O)(=O)c2ccc(F)cc2)c2ccccc12	61	2.24
COc1ccc(C(=O)/C=C/c2cc(-c3cc(OC)c(OC)c(OC)c3)n[nH]2)cc1OC	4.36	1.63
O=C(c1ccccc1Br)C(F)(F)F	> 100	
O=C1OCC2=C1C(c1cccc(Br)c1)c1cc3c(cc1N2CCO)CCC3 (stereo not given)	17.9	2.37
Oc1cccnc1[Se]	> 100	
O=C1C=CC(=O)c2cc3cc(CBr)ccc3cc21	> 26.2	2.12
[Cl][Hg][c]1cc[c]([Hg][Cl])o1	3.66	1.18
CN(C)C(n1cc2c(c1)-c1ccc(Cl)cc1C(c1ccccc1F)=NC2)n1cc2c(c1)-c1ccc(Cl)cc1C(c1ccccc1F)=NC2	> 100	
COc1cc2c(cc1OCCCNC(=O)c1cccc3c(=O)c4ccccc4[nH]c13)N=C[C@@H]1CCCN1C2=O	29.6	< 0.01
O=C1Nc2ccccc2/C1=N\[O-].O=C1Nc2ccccc2/C1=N\[O-].[Cu+2]	> 100	> 100
CCOC(=O)Nc1ccc(C)c(NC(=O)OCC)c1	> 100	
